Test results reported in article PMC9960243, “Cytotoxic and Antileishmanial Effects of the Monoterpene β-Ocimene” (Pharmaceuticals, 2023).
Like-named read-outs stand apart in the source and are kept apart here.

Tests used:
[1] = system: L. amazonensis axenic amastigotes; parameters: method as in PMID 23457021; details: read-out: IC50 against axenic amastigotes of L. amazonensis; cited from earlier work
[2] = Cytotoxic effect on mammalian cells (MTT, 72 h), RAW 264.7; assay type: cell-based; details: mouse, RAW 264.7 macrophages; for CC50 at 72 h: pH 7.2, MTT
Experimental: (§1) RAW 264.7 lineage macrophages (available from the cell bank in Rio de Janeiro, Brazil) were used, grown in sterile bottles with DMEM medium, pH 7.2 containing 10% FBS and 1% penicillin 100 U/mL and streptomycin 100 μg/mL, and kept in an oven at 37 °C and 5% CO2.
(§2) In a 96-well plate, RAW 264.7 macrophages were plated at 10^5 cells per well in 100 μL of supplemented DMEM medium. The plate was incubated for 3 h at 37 °C and 5% CO2 for cell adhesion. Afterwards, to remove non-adhered cells, washing with PBS (phosphate-buffered saline solution) was performed. Furthermore, 100 μL of DMEM supplemented with β-ocimene (3.12–400 μM), and the reference drugs, meglumine antimoniate (250–2000 μM) and amphotericin B (0.062–0.5 μM) were then added to the wells, with oven incubation at 37 °C, and 5% CO2 for 72 h. Then, 10 μL of MTT (5 mg/mL) per well was then added, being kept for another 4 h in an oven at 37 °C and 5% CO2. The supernatant was removed, and 100 µL of DMSO was added to all wells. After 30 min of stirring, readings were taken at 540 nm. DMEM supplemented with 0.5% DMSO was used as a negative control and considered as 100% macrophage viability. The selectivity index for each treatment was calculated by dividing the CC50 by the IC50, or EC50 [32].

[3] = Cytotoxic effect on mammalian cells, Vero; assay type: cell-based; details: African green monkey, Vero cells
[4] = system: RAW 264.7 macrophages infected with Leishmania amazonensis; assay: Treatment of infected macrophages (intra-macrophagic amastigotes, 72 h); assay type: cell-based; details: for EC50: infected RAW 264.7 macrophages, read-out: Intramacrophagic Amastigotes EC50
Experimental: In a 24-well plate with 13 mm round sterile cover slips, RAW 264.7 macrophages were added (at a concentration of 10^5 cells to 1 mL of supplemented DMEM. For cell adhesion, the plates were incubated at 37 °C and 5% CO2 for 3 h. Three washes were then performed with PBS at 37 °C to discard non-adherent cells, after which 1 mL of DMEM supplemented (stationary phase) promastigote forms of L. amazonensis was added at the ratio of 10 promastigotes per macrophage. The plate was then incubated at 5% CO2 and 37 °C for 4 h. After infection, the medium was aspirated and the treatment was added using 1 mL of DMEM supplemented with β-ocimene (3.12–25 μM) with the reference drugs, meglumine antimoniate (1.56–200 μM) and amphotericin B (0.031–2 μM), this was subsequently incubated at 37 °C and 5% CO2 for 72 h. Finally, the coverslips were removed, fixed, stained, and mounted on permanent slides using Entellan. The number of infected macrophages and the number of parasites per macrophage were counted: 300 cells were evaluated on each slide at 1000× magnification. The infection index was calculated by multiplying the number of infected macrophages by the number of amastigotes per infected macrophage. The negative control was performed using DMEM with 0.5% DMSO. The supernatant was removed at the end of the experiment and kept at −20 °C for later use in nitric oxide dosing tests.

[5] = system: Leishmania (Leishmania) amazonensis promastigotes; assay: microbe, parasite or virus in culture; assay type: cell-based; details: 72 h; for IC50: MTT
Experimental: (§3) Strains of Leishmania (Leishmania) amazonensis (IFLA/BR/67/PH8) (promastigote form) were cultivated in Schneider’s insect medium (supplemented with 10% FBS, and 1% antibiotic solution), at 26 °C, and at pH 7, in a biological oxygen demand (BOD) incubator. To transform the promastigote forms into axenic amastigotes, the temperature was increased to 32 °C and the pH of the medium was adjusted to 5.5 [14].
(§4) Promastigote and axenic amastigote growth inhibition was tested as previously described by DIAS et al.. In a 96-well plate, parasites were seeded at 10^6 parasites per well in 100 μL of supplemented Schneider medium. The parasites were treated with differing concentrations of β-ocimene (1.56–12.5 μM), and reference drugs, meglumine antimoniate (500–40,000 μM) and amphotericin B (0.062–0.5 μM). The plates were incubated in a BOD incubator at 26 °C for 72 h. Afterwards, 10 µL of MTT (5 mg/mL) was added to each well, and the plate was incubated again for 4 h, when 50 µL of 10% SDS was added. Absorbances were then measured using an ELISA plate reader (BioSystems model ELx800, Curitiba, PR, Brazil) at 540 nm. The negative control consisted of Schneider medium with 0.5% DMSO and was considered as 0% inhibition.

[6] = system: Leishmania (Leishmania) amazonensis axenic amastigotes; assay: microbe, parasite or virus in culture; assay type: cell-based; details: 72 h; for EC50: MTT
Experimental: as §3, §4

[7] = system: L. infantum promastigotes; parameters: method as in PMID 31151304; details: read-out: IC50 against L. infantum promastigotes; cited from earlier work
[8] = system: L. amazonensis promastigotes; parameters: method as in PMID 19321295; details: read-out: IC50 against L. amazonensis promastigotes; cited from earlier work
[9] = system: RAW 264.7 macrophages; assay: Lysosomal activity (neutral red uptake); assay type: cell-based; details: 12.5 and 25 µM, 72 h, macrophages not stimulated by L. amazonensis
Experimental: RAW 264.7 macrophages were added (10^5 cells per well) to the 96-well plate in 100 μL of DMEM with different concentrations of β-ocimene (3.12–25 μM). The plate was incubated for 72 h at 37 °C and 5% CO2. Afterwards, 10 μL of neutral red 0.2% DMSO solution was added and incubated for 30 min. The supernatant was then removed, and the wells were washed with 0.9% saline at 37 °C, and 100 μL of extraction solution was added to dissolve the neutral red inside the lysosomal secretion vesicles. After 30 min on a Kline shaker, the plate was read at 540 nm.

[10] = system: Leishmania amazonensis promastigote plasmatic membrane; assay type: cell-based; details: not told
Experimental: Plasma membrane integrity in promastigote forms of L. amazonensis treated with β-ocimene was evaluated using the SYTOX green dye method. Promastigote forms in logarithmic growth were seeded in Schneider medium and exposed to β-ocimene at concentrations corresponding to IC50, 2 × IC50 and 4 × IC50 in the presence of SYTOX green dye (5 μM) for 7 h at 26 °C in a BOD incubator. The plates were then read in a fluorescence reader with an emission filter of 523 nm and excitation at 488 nm.

[11] = system: macrophages infected with L. amazonensis; assay: Measurement of reactive oxygen species (H2DCFDA); assay type: cell-based; details: RAW 264.7 macrophages infected with L. amazonensis, 72 h
Experimental: ROS levels, as produced by the macrophages infected with L. amazonensis and treated with β-ocimene, were determined by the H2DCFDA test. Macrophages were infected according to Section 2.5 and treated with β-ocimene (3.12–12.6 µM) for 72 h. At the end of the period, 10 µL of 20 µM H2 DCFDA dye was added. The plate was incubated at 37 °C for 30 min (in the dark), and the fluorescence intensity was measured using a spectrofluorometer (FLx800) with excitation at 485 nm and emission at 528 nm.

[12] = system: RAW 264.7 macrophages; assay: Phagocytosis assay (stained zymosan); assay type: cell-based; details: 3.12–25 μM, 72 h, macrophages not stimulated by L. amazonensis
Experimental: RAW 264.7 macrophages were plated in a 96-well plate at 10^5 cells per well in 100 μL of DMEM medium containing different concentrations of β-ocimene (3.12–25 μM). The plate was incubated for 72 h at 37 °C and 5% CO2; after which 10 μL of stained zymosan per well was added, and the plate conditioned for 30 min at 37 °C. Then, 100 μL of Baker’s fixative (4% v/v formaldehyde, 2% w/v sodium chloride, and 1% w/v calcium acetate in distilled water) was added to stop phagocytosis, and 30 min later, the plate was washed with 0.9% saline to remove the zymosan not phagocytized by macrophages. Afterwards, the supernatant was removed and 100 μL of extraction solution was added and solubilized in a Kline shaker. Absorbances were measured at 540 nm.

[13] = system: Promastigote forms of L. amazonensis; assay: Parasite morphological evaluation using atomic force microscopy (AFM); assay type: cell-based, Leishmania amazonensis; details: 1 × IC50 and 2 × IC50, 72 h
Experimental: Promastigote forms of L. amazonensis were grown in 96-well plates at a concentration of 10^6 per well in complete Schneider medium. β-ocimene was added at concentrations equivalent to IC50, 2 × IC50, and 4 × IC50, and incubated at 26 °C for 72 h in BOD, and the parasites were then washed twice with ice-cold PBS (under 1100× g for 15 min at room temperature), and then fixed with 2.5% (v/v) glutaraldehyde in PBS, pH 7.2, for 1 h. Morphological analysis using AFM (TT-AFM equipment, AFM Workshop-USA), at a resonant frequency of approximately 242 kHz, was then performed.

[14] = system: RAW 264.7 macrophages uninfected and infected with Leishmania amazonensis; assay: Th1/Th2 cytokine (ELISA) and nitric oxide (Griess) production in macrophage supernatants; assay type: cell-based; details: 72 h
Experimental: Modulation of Th1 (TNF-α, IL-12), Th2 (IL-10, IL-6), and NO cytokine production was investigated in the supernatants of infected macrophages, whether treated or untreated with β-ocimene. Cytokine concentration (pg/mL) in macrophage supernatants was determined using the ELISA sandwich technique according to the manufacturer’s (eBioscience) instructions, using interpolation with a standard curve of recombinant cytokines. Optical density was read at 450 nm using a microplate spectrophotometer.
Nitrite levels from the supernatants of the infected macrophages, whether treated or untreated with β-ocimene, were used indirectly to estimate NO production. The NO concentration (µM) was determined using the Griess reaction following a previously described methodology, by interpolation with a standard curve with NaNO2.
LPS (1 μg/mL) plus IFN-γ (1000 U/mL) were used as a positive control.

[15] = system: RAW 264.7 macrophages; assay: Cytotoxic effect on mammalian cells (MTT, 72 h), RAW 264.7; assay type: cell-based; details: MTT
Experimental: as §1, §2

[16] = system: Vero cells; assay: Cytotoxic effect on mammalian cells, Vero; assay type: cell-based
[17] = Leishmania amazonensis, RAW264.7, 72 h
[18] = RAW 264.7 macrophages infected with L. amazonensis
[19] = Leishmania, read-out: % Cytotoxicity Promastigotes
[20] = Leishmania, read-out: % Cytotoxicity Axenic Amastigotes

## NC(=S)NN=Cc1ccc([N+](=O)[O-])cc1 [4-nitrobenzaldehyde thiosemicarbazone]
[1]
  IC50: 8 µM

## C[C@@H]1[C@H](O)[C@@H](C)/C=C/C=C/C=C/C=C/C=C/C=C/C=C/[C@H](O[C@@H]2O[C@H](C)[C@@H](O)[C@H](N)[C@@H]2O)C[C@@H]2O[C@](O)(C[C@@H](O)C[C@@H](O)[C@H](O)CC[C@@H](O)C[C@@H](O)CC(=O)O[C@H]1C)C[C@H](O)[C@H]2C(=O)O [Amphotericin B, reference compound]
[2]
  CC50 at 72 h: 0.39 ± 0.03 µM
[3]
  CC50: 2.46 ± 0.6 µM
[4]; [17]
  EC50: 130 nM
[5]; Leishmania
  IC50: 0.35 ± 0.09 µM
[6]; Leishmania
  EC50: 0.51 ± 0.02 µM

## Cc1ccc(C(C)C)cc1O [carvacrol]
[7]
  IC50: 65 µM

## C=C(C)[C@H]1CC=C(C)CC1 [limonene]
[8]
  IC50: 252 µM

## Cc1ccc(C(C)C)c(O)c1 [thymol]
[7]
  IC50: 48 µM

## C=C/C(C)=C/CC=C(C)C [β-ocimene, beta-3,7-dimethyl-1,3,6-octatriene]
[9]
  lysosomal volume (neutral red retention): increase in the volume of lysosomal vesicles
[2]; pH 7.2, 50 µM
  cytotoxicity at 72 h, 50 µM: 1.17 ± 0.09%
[2]; pH 7.2, 100 µM
  cytotoxicity at 72 h, 100 µM: 46.3 ± 4.11%
[2]; pH 7.2, 200 µM
  cytotoxicity at 72 h, 200 µM: 56.6 ± 5.92%
[2]; pH 7.2, 400 µM
  cytotoxicity at 72 h, 400 µM: 81.7 ± 8.16%
[2]
  CC50 at 72 h: 114 ± 8.2 µM
[3]
  CC50: 299 ± 7.17 µM
[3]; 50 µM
  cytotoxicity at 50 µM: 1.14 ± 0.1%
[3]; 100 µM
  cytotoxicity at 100 µM: 6.04 ± 0.41%
[3]; 200 µM
  cytotoxicity at 200 µM: 36.2 ± 4.26%
[3]; 400 µM
  cytotoxicity at 400 µM: 69.2 ± 4.9%
[10]
  plasmatic membrane permeability (SYTOX green fluorescent signal): significant increase in permeability
[11]
  ROS production: increase
[12]
  phagocytic activity (zymosan particles): no increase in phagocytosis of zymosan particles
[13]
  morphological alterations (AFM): Loose membrane texture and abnormalities in the cell shape
[14]; [18]
  IL-6 levels: decrease
  IL-10 levels: decrease in levels of IL-10
  IL-12 levels: did not affect IL-12 levels
  NO production: increase
  TNF-α production: increase in the production of TNF-α
[14]; uninfected RAW 264.7 macrophages
  cytokine levels of uninfected macrophages compared to the control: no significant differences
[4]; [17]
  EC50: 890 ± 30 nM
[4]; intra-macrophagic amastigote form
  times more selective than amphotericin B (selectivity index): 42.88 times
[4]; low concentrations, 72 h
  infection index (infection rate): able to reduce
  number of amastigotes per macrophage: able to reduce
  percentage of infected macrophages: able to reduce
[5]; [19]
  cytotoxicity at 1.56 µM: 27.3 ± 2.16%
  cytotoxicity at 3.12 µM: 70.2 ± 2.2%
  cytotoxicity at 6.25 µM: 81.4%
  cytotoxicity at 12.5 µM: 100%
[5]; Leishmania
  IC50: 2.78 ± 0.17 µM
[6]; [20]
  cytotoxicity at 1.56 µM: 59.1 ± 2.4%
  cytotoxicity at 3.12 µM: 79.1 ± 3.7%
  cytotoxicity at 6.25 µM: 100%
  cytotoxicity at 12.5 µM: 100%
[6]; Leishmania
  EC50: 1.12 ± 0.05 µM

## Meglumine antimoniate [reference compound]
[15]
  CC50: 15.9 mM
[16]
  CC50: 22.8 mM
[4]; 72 h
  EC50: 578000 ± 19100 nM
[5]
  IC50: 2150 ± 31 µM
[6]
  EC50: 1730 ± 36.8 µM
